Patent publication US20260200897A1, “4-((5-(3-(4-(PYRIDIN-2-YL)CYCLOPENTYL)-1H-PYRAZOL-3-YL)AMINO)-BENZENESULFONAMIDE DERIVATIVES AND SIMILAR COMPOUNDS AS CDK INHIBITORS FOR THE TREATMENT OF CANCER” (BeOne Medicines I GmbH, priority 2023, published 2026)

Experiments:
[1] = target: CDK1/Cyclin B1 (Homo sapiens, UniProt P06493); experiment: CDK1/Cyclin B1 TR-FRET biochemical assay, 1 mM ATP; details: 0.15 μM Rb (Ser780)-biotin substrate, 90 min reaction, Table 2
Procedure: (§1) Compounds disclosed herein were tested for inhibition of CDK2/Cyclin E1 or CDK1/Cyclin B kinase in an assay based on the time-resolved fluorescence-resonance energy transfer (TR-FRET) methodology. The assay was carried out in 384-well low volume black plates in a reaction mixture containing CDK2/Cyclin E1 or CDK1/Cyclin B1, 1 mM ATP for CDK2/Cyclin E1 and CDK1/Cyclin B1, 0.15 μM Rb (Ser780)-biotin substrate and 0-10 μM compound in buffer containing 50 mM HEPES pH7.0, 0.02% NaN3, 0.01% BSA, 0.1 mM Orthovanadate, 50 mM MgCl2, 1 mM DTT and 0.005% Tween-20. The kinase was incubated with compound for 60 minutes at room temperature and the reaction was initiated by the addition of ATP and Rb (Ser780)-biotin substrate. After reaction at room temperature for 90 minutes, an equal volume of stop/detection solution was added according to the manufacture's instruction (Cisbio Bioassays). The stop/detection solution contained Streptavidin-XL665 and Anti-pRb (Ser780) mAb-Eu Cryptate in Detection buffer (Cisbio Bioassays). Plates were incubated at room temperature for 60 minutes, and the TR-FRET signals (ex337 nm, em665 nm/620 nm) were recorded on a PHERAstar FSX plate reader (BMG Labtech). The inhibition percentage of CDK2/Cyclin E1 or CDK1/Cyclin B1 kinase activity in presence of increasing concentrations of compounds was calculated based on the ratio of fluorescence at 665 nm to that at 620 nm. The IC50 for each compound was derived from fitting the data to the four-parameter logistic equation by Dotmatics.

[2] = target: CDK2/Cyclin E1 (Homo sapiens, UniProt P24941); experiment: CDK2/Cyclin E1 TR-FRET biochemical assay, 1 mM ATP; details: 0.15 μM Rb (Ser780)-biotin substrate, 90 min reaction, Table 2
Procedure: as §1

Sequence of CDK1/Cyclin B1 (P06493 whole entry): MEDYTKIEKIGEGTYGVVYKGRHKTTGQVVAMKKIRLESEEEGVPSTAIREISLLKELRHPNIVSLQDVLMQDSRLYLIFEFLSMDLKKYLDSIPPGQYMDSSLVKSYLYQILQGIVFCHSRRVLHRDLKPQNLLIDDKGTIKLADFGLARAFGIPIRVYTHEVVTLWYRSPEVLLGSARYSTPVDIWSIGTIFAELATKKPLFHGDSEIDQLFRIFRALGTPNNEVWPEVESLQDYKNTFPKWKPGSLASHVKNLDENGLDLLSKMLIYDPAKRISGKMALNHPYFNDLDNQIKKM
Sequence of CDK1/Cyclin B1 (P14635 whole entry partner): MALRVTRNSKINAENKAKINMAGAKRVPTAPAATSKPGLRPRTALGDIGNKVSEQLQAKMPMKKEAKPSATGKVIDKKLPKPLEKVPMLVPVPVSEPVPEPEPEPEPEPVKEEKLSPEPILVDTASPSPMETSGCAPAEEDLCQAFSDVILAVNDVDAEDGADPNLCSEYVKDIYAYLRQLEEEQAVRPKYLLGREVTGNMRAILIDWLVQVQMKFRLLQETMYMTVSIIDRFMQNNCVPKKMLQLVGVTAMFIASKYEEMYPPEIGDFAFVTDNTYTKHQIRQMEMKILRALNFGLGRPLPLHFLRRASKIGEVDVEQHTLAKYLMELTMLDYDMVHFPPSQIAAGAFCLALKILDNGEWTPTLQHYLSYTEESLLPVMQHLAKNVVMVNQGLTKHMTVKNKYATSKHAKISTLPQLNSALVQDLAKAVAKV

Structure (SMILES)	IC50 [1]	IC50 [2]
CC(C)(C)c1cnc(C2CCC(c3cc(Nc4cc5c(cc4F)S(=O)(=O)NC5)n[nH]3)C2)o1 (single isomer, unassigned) [Example 17a, 5-((5-(3-(5-(tert-butyl)oxazol-2-yl)cyclopentyl)-1H-pyrazol-3-yl)amino)-6-fluoro-2,3-dihydrobenzo[d]isothiazole 1,1-dioxide]	2090 nM	3.9 nM
CC(C)(C)c1cnc(C2CCC(c3cc(Nc4cc5c(cc4F)S(=O)(=O)NC5)n[nH]3)C2)o1 (single isomer, unassigned) [Example 17b, 5-((5-(3-(5-(tert-butyl)oxazol-2-yl)cyclopentyl)-1H-pyrazol-3-yl)amino)-6-fluoro-2,3-dihydrobenzo[d]isothiazole 1,1-dioxide]	> 10000 nM	7710 nM
CC(C)(C)c1cnc(C2CCC(c3cc(Nc4cc5c(cc4F)S(=O)(=O)NC5)n[nH]3)C2)o1 (single isomer, unassigned) [Example 17c, 5-((5-(3-(5-(tert-butyl)oxazol-2-yl)cyclopentyl)-1H-pyrazol-3-yl)amino)-6-fluoro-2,3-dihydrobenzo[d]isothiazole 1,1-dioxide]	> 10000 nM	102 nM
CC(C)(C)c1cnc(C2CCC(c3cc(Nc4cc5c(cc4F)S(=O)(=O)NC5)n[nH]3)C2)o1 (single isomer, unassigned) [Example 17d, 5-((5-(3-(5-(tert-butyl)oxazol-2-yl)cyclopentyl)-1H-pyrazol-3-yl)amino)-6-fluoro-2,3-dihydrobenzo[d]isothiazole 1,1-dioxide]	> 10000 nM	2870 nM
CC(C)(C)c1ccnc(C2CCC(c3cc(Nc4ccc(S(N)(=O)=O)cc4F)n[nH]3)C2)c1 (centres unmarked) [Example 1, 4-((5-(3-(4-(tert-butyl)pyridin-2-yl)cyclopentyl)-1H-pyrazol-3-yl)amino)-3-fluorobenzenesulfonamide]	> 10000 nM	100 nM
Cc1cc(C(C)(C)C)cc(C2CCC(c3cc(Nc4ccc(S(N)(=O)=O)cc4F)n[nH]3)C2)n1 (centres unmarked) [Example 2, 4-((5-(3-(4-(tert-butyl)-6-methylpyridin-2-yl)cyclopentyl)-1H-pyrazol-3-yl)amino)-3-fluorobenzenesulfonamide]	> 10000 nM	5680 nM
CC(C)(C)c1cnnc(C2CCC(c3cc(Nc4ccc(S(N)(=O)=O)cc4F)n[nH]3)C2)c1 (centres unmarked) [Example 3, 4-((5-(3-(5-(tert-butyl)pyridazin-3-yl)cyclopentyl)-1H-pyrazol-3-yl)amino)-3-fluorobenzenesulfonamide]	> 10000 nM	147 nM
CC(C)(C)c1ccnc(C2CCC(c3cc(Nc4ccc(S(N)(=O)=O)cc4F)n[nH]3)C2)n1 (centres unmarked) [Example 4, 4-((5-(3-(4-(tert-butyl)pyrimidin-2-yl)cyclopentyl)-1H-pyrazol-3-yl)amino)-3-fluorobenzenesulfonamide]	848 nM	7.1 nM
CC(C)c1ccnc(C2CCC(c3cc(Nc4ccc(S(N)(=O)=O)cc4F)n[nH]3)C2)n1 (centres unmarked) [Example 5, 3-fluoro-4-((5-(3-(4-isopropylpyrimidin-2-yl)cyclopentyl)-1H-pyrazol-3-yl)amino)benzenesulfonamide]	656 nM	4.6 nM
CC(C)c1cnc(C2CCC(c3cc(Nc4ccc(S(N)(=O)=O)cc4F)n[nH]3)C2)o1 (centres unmarked) [Example 7, 3-fluoro-4-((5-(3-(5-isopropyloxazol-2-yl)cyclopentyl)-1H-pyrazol-3-yl)amino)benzenesulfonamide]	> 10000 nM	93 nM
Cc1nc(C2CCC(c3cc(Nc4ccc(S(N)(=O)=O)cc4F)n[nH]3)C2)oc1C(C)(C)C (centres unmarked) [Example 8, 4-((5-(3-(5-(tert-butyl)-4-methyloxazol-2-yl)cyclopentyl)-1H-pyrazol-3-yl)amino)-3-fluorobenzenesulfonamide]	> 10000 nM	79 nM
NS(=O)(=O)c1ccc(Nc2cc(C3CCC(c4ncc(C5CC5)o4)C3)[nH]n2)c(F)c1 (centres unmarked) [Example 9, 4-((5-(3-(5-cyclopropyloxazol-2-yl)cyclopentyl)-1H-pyrazol-3-yl)amino)-3-fluorobenzenesulfonamide]	> 10000 nM	131 nM
CC(C)(C)c1ccc(C2CCC(c3cc(Nc4cc5c(cc4F)S(=O)(=O)NC5)n[nH]3)C2)nc1 (centres unmarked) [Example 10, 5-((3-(3-(5-(tert-butyl)pyridin-2-yl)cyclopentyl)-1H-pyrazol-5-yl)amino)-6-fluoro-2,3-dihydrobenzo[d]isothiazole 1,1-dioxide]	> 10000 nM	> 10000 nM

The remaining lines, values ahead:

IC50 [1]	IC50 [2]	Structure (SMILES)
2870 nM	8.6 nM	CC(C)c1cnc(C2CCC(c3cc(Nc4ccc5c(c4F)CNS5(=O)=O)n[nH]3)C2)o1 (single isomer, unassigned) [Example 109a, 4-fluoro-5-((5-(3-(5-isopropyloxazol-2-yl)cyclopentyl)-1H-pyrazol-3-yl)amino)-2,3-dihydrobenzo[d]isothiazole 1,1-dioxide]
> 10000 nM	172 nM	CC(C)c1cnc(C2CCC(c3cc(Nc4ccc5c(c4F)CNS5(=O)=O)n[nH]3)C2)o1 (single isomer, unassigned) [Example 109b, 4-fluoro-5-((5-(3-(5-isopropyloxazol-2-yl)cyclopentyl)-1H-pyrazol-3-yl)amino)-2,3-dihydrobenzo[d]isothiazole 1,1-dioxide]
> 10000 nM	1810 nM	CC(C)c1cnc(C2CCC(c3cc(Nc4ccc5c(c4F)CNS5(=O)=O)n[nH]3)C2)o1 (single isomer, unassigned) [Example 109c, 4-fluoro-5-((5-(3-(5-isopropyloxazol-2-yl)cyclopentyl)-1H-pyrazol-3-yl)amino)-2,3-dihydrobenzo[d]isothiazole 1,1-dioxide]
> 10000 nM	158 nM	CC(C)c1cnc(C2CCC(c3cc(Nc4ccc5c(c4F)CNS5(=O)=O)n[nH]3)C2)o1 (single isomer, unassigned) [Example 109d, 4-fluoro-5-((5-(3-(5-isopropyloxazol-2-yl)cyclopentyl)-1H-pyrazol-3-yl)amino)-2,3-dihydrobenzo[d]isothiazole 1,1-dioxide]
160 nM	1.8 nM	CC(C)c1cnc(C2CCC(c3cc(Nc4ccc5c(c4)CS(=O)(=O)N5)n[nH]3)C2)o1 (single isomer, unassigned) [Example 138a, cis-5-((5-(3-(5-isopropyloxazol-2-yl)cyclopentyl)-1H-pyrazol-3-yl)amino)-1,3-dihydrobenzo[c]isothiazole 2,2-dioxide]
2420 nM	12 nM	CC(C)c1cnc(C2CCC(c3cc(Nc4ccc5c(c4)CS(=O)(=O)N5)n[nH]3)C2)o1 (single isomer, unassigned) [Example 138b, cis-5-((5-(3-(5-isopropyloxazol-2-yl)cyclopentyl)-1H-pyrazol-3-yl)amino)-1,3-dihydrobenzo[c]isothiazole 2,2-dioxide]
238 nM	2.8 nM	CC(C)c1cnc(C2CCC(c3cc(Nc4ccc5c(c4F)CS(=O)(=O)N5)n[nH]3)C2)o1 (single isomer, unassigned) [Example 152a, cis-4-fluoro-5-((5-(3-(5-isopropyloxazol-2-yl)cyclopentyl)-1H-pyrazol-3-yl)amino)-1,3-dihydrobenzo[c]isothiazole 2,2-dioxide]
4580 nM	19 nM	CC(C)c1cnc(C2CCC(c3cc(Nc4ccc5c(c4F)CS(=O)(=O)N5)n[nH]3)C2)o1 (single isomer, unassigned) [Example 152b, cis-4-fluoro-5-((5-(3-(5-isopropyloxazol-2-yl)cyclopentyl)-1H-pyrazol-3-yl)amino)-1,3-dihydrobenzo[c]isothiazole 2,2-dioxide]
189 nM	0.6 nM	CC(C)(C)c1cnc(C2CCC(c3cc(Nc4ccc5c(c4)CN=S5(C)=O)n[nH]3)C2)o1 (single isomer, unassigned) [Example 169a, 5-((5-(3-(5-(tert-butyl)oxazol-2-yl)cyclopentyl)-1H-pyrazol-3-yl)amino)-1-methyl-3H-1λ^4-benzo[d]isothiazole 1-oxide]
2350 nM	21 nM	CC(C)(C)c1cnc(C2CCC(c3cc(Nc4ccc5c(c4)CN=S5(C)=O)n[nH]3)C2)o1 (single isomer, unassigned) [Example 169b, 5-((5-(3-(5-(tert-butyl)oxazol-2-yl)cyclopentyl)-1H-pyrazol-3-yl)amino)-1-methyl-3H-1λ^4-benzo[d]isothiazole 1-oxide]
6710 nM	57 nM	CC(C)(C)c1cnc(C2CCC(c3cc(Nc4ccc5c(c4)CN=S5(C)=O)n[nH]3)C2)o1 (single isomer, unassigned) [Example 169c, 5-((5-(3-(5-(tert-butyl)oxazol-2-yl)cyclopentyl)-1H-pyrazol-3-yl)amino)-1-methyl-3H-1λ^4-benzo[d]isothiazole 1-oxide]
> 10000 nM	173 nM	CC(C)(C)c1cnc(C2CCC(c3cc(Nc4ccc5c(c4)CN=S5(C)=O)n[nH]3)C2)o1 (single isomer, unassigned) [Example 169d, 5-((5-(3-(5-(tert-butyl)oxazol-2-yl)cyclopentyl)-1H-pyrazol-3-yl)amino)-1-methyl-3H-1λ^4-benzo[d]isothiazole 1-oxide]
